Data taken from patent US20230266302A1, “SYNTHESIS AND USE OF N-BENZYL SULFONAMIDES” (THE UNIVERSITY OF TULSA, priority 2020, published 2023).

Assays:
Experiment in all cases: ATP level assay (CellTiter-Glo), percent of control
Type in all cases: cell-based
T47D (breast cancer) = settings: two hour incubation; for activity at 100 µM: Homo sapiens, T47D, 2 h, compound alone, control DMSO, read-out: POC (percent of control) T47D
PC3 (prostate cancer) = settings: two hour incubation; for activity at 100 µM: 2 h, compound alone, control DMSO, read-out: POC (percent of control) PC3
MDA-MB (breast cancer) = settings: two hour incubation; for activity at 100 µM: 2 h, compound alone, control DMSO, read-out: POC (percent of control) MDA-MB
[1] = system: MCF10A (non-cancerous breast); settings: two hour incubation; for activity at 100 µM: Homo sapiens, MCF-10A, 2 h, compound alone, control DMSO, read-out: POC (percent of control) MCF10A
NCI-H196 (lung cancer) = settings: two hour incubation; for activity at 100 µM: NCI-H196, 2 h, compound alone, control DMSO, read-out: POC (percent of control) NCI-H196
H293 (kidney cancer) = settings: two hour incubation; for activity at 100 µM: 2 h, compound alone, control DMSO, read-out: POC (percent of control) H293
MCF7 (breast cancer) = settings: two hour incubation; for activity at 100 µM: Homo sapiens, MCF7, 2 h, compound alone, control DMSO, read-out: POC (percent of control) MCF7
SkBr3 (breast cancer) = settings: two hour incubation; for activity at 100 µM: Homo sapiens, SK-BR-3, 2 h, compound alone, control DMSO, read-out: POC (percent of control) SkBr3
HeLa (cervical cancer) = settings: two hour incubation; for activity at 100 µM: Homo sapiens, HeLa, 2 h, compound alone, control DMSO, read-out: POC (percent of control) HeLa
HDF (normal cells) = settings: two hour incubation; for activity at 100 µM: 2 h, compound alone, control DMSO, read-out: POC (percent of control) HDF
[2] = system: BxPC3 (pancreatic cancer); settings: two hour incubation; for activity at 100 µM: Homo sapiens, BXPC-3, 2 h, compound alone, control DMSO, read-out: POC (percent of control) BxPC3
[3] = compound 100 uM + 2DG (about 10-20 mM)
[4] = compound 100 uM + rotenone (approximately 1.25 μM)

| Structure (SMILES) | activity at 100 µM (T47D (breast cancer)) [%] | POC (percent of control) T47D (T47D (breast cancer); [3]) | POC (percent of control) T47D (T47D (breast cancer); [4]) | activity at 100 µM (PC3 (prostate cancer)) [%] | POC (percent of control) PC3 (PC3 (prostate cancer); [3]) | POC (percent of control) PC3 (PC3 (prostate cancer); [4]) | activity at 100 µM (MDA-MB (breast cancer)) [%] | POC (percent of control) MDA-MB (MDA-MB (breast cancer); [3]) | POC (percent of control) MDA-MB (MDA-MB (breast cancer); [4]) | activity at 100 µM [1] [%] | POC (percent of control) MCF10A [1, 3] | POC (percent of control) MCF10A [1, 4] | activity at 100 µM (NCI-H196 (lung cancer)) [%] | POC (percent of control) NCI-H196 (NCI-H196 (lung cancer); [3]) | POC (percent of control) NCI-H196 (NCI-H196 (lung cancer); [4]) | activity at 100 µM (H293 (kidney cancer)) [%] | POC (percent of control) H293 (H293 (kidney cancer); [3]) | POC (percent of control) H293 (H293 (kidney cancer); [4]) | activity at 100 µM (MCF7 (breast cancer)) [%] | POC (percent of control) MCF7 (MCF7 (breast cancer); [3]) | also measured |
| --- | --- | --- | --- | --- | --- | --- | --- | --- | --- | --- | --- | --- | --- | --- | --- | --- | --- | --- | --- | --- | --- |
| O=S(=O)(NCc1c[nH]c2ccccc12)c1ccc(Cl)cc1 [Compound 2, N-[(1H-indol-3-yl)methyl]-4-chlorobenzenesulfonamide] | 22.2 | 16.6% of control | 30.8% of control | 30.9 | 16.7% of control | 36.6% of control | 48.1 | 37.8% of control | 55.7% of control | 42.9 | 23.7% of control | 58.7% of control | 50.9 | 22.9% of control | 23.5% of control | 43.8 | 20% of control | 47.6% of control | 70.1 | 25.1% of control | POC (percent of control) MCF7 (MCF7 (breast cancer); [4]): 56.9% of control; activity at 100 µM (SkBr3 (breast cancer)): 72.6%; POC (percent of control) SkBr3 (SkBr3 (breast cancer); [3]): 38% of control; POC (percent of control) SkBr3 (SkBr3 (breast cancer); [4]): 72.6% of control; activity at 100 µM (HeLa (cervical cancer)): 64.6%; POC (percent of control) HeLa (HeLa (cervical cancer); [3]): 30.8% of control; POC (percent of control) HeLa (HeLa (cervical cancer); [4]): 57.5% of control; activity at 100 µM (HDF (normal cells)): 49.3%; POC (percent of control) HDF (HDF (normal cells); [3]): 37.5% of control; POC (percent of control) HDF (HDF (normal cells); [4]): 57.6% of control; activity at 100 µM [2]: 69%; POC (percent of control) BxPC3 [2, 4]: 86.4% of control |
| Cc1ccc(S(=O)(=O)NCc2c[nH]c3cccc(Br)c23)cc1 [Compound 5, N-[(4-bromo-1H-indol-3-yl)methyl]-4-methylbenzenesulfonamide] | 36.6 | 13.8% of control | 36% of control | 68.3 | 4.8% of control | 18.3% of control | 54.4 | 24.7% of control | 24.6% of control | 55.3 | 15.8% of control | 45% of control | 47.7 | 4.2% of control | 9.1% of control | 49.7 | 17.2% of control | 41.2% of control | 86.4 | 18.7% of control | POC (percent of control) MCF7 (MCF7 (breast cancer); [4]): 55.6% of control; activity at 100 µM (SkBr3 (breast cancer)): 71.1%; POC (percent of control) SkBr3 (SkBr3 (breast cancer); [3]): 37.1% of control; POC (percent of control) SkBr3 (SkBr3 (breast cancer); [4]): 60% of control; activity at 100 µM (HeLa (cervical cancer)): 76.1%; POC (percent of control) HeLa (HeLa (cervical cancer); [3]): 22.3% of control; POC (percent of control) HeLa (HeLa (cervical cancer); [4]): 31.9% of control; activity at 100 µM (HDF (normal cells)): 70.5%; POC (percent of control) HDF (HDF (normal cells); [3]): 16.1% of control; POC (percent of control) HDF (HDF (normal cells); [4]): 83.5% of control; activity at 100 µM [2]: 54.3%; POC (percent of control) BxPC3 [2, 3]: 10.5% of control; POC (percent of control) BxPC3 [2, 4]: 36.5% of control |
| Cc1cccc2c(CNS(=O)(=O)c3ccccc3)c[nH]c12 [Compound 6, N-[(7-methyl-1H-indol-3-yl)methyl]benzenesulfonamide] | 23.7 | 19.7% of control | 39.1% of control | 38.3 | 35.9% of control | 54.3% of control | 57.2 | 58.5% of control | 67.3% of control | 52.3 | 41.3% of control | 87.8% of control | 64.3 | 34.3% of control | 23.7% of control | 62.6 | 31.6% of control | 49.6% of control | 72 | 41% of control | POC (percent of control) MCF7 (MCF7 (breast cancer); [4]): 63.4% of control; activity at 100 µM (SkBr3 (breast cancer)): 97%; POC (percent of control) SkBr3 (SkBr3 (breast cancer); [3]): 55.9% of control; POC (percent of control) SkBr3 (SkBr3 (breast cancer); [4]): 79.4% of control; activity at 100 µM (HeLa (cervical cancer)): 75.3%; POC (percent of control) HeLa (HeLa (cervical cancer); [3]): 47.3% of control; POC (percent of control) HeLa (HeLa (cervical cancer); [4]): 66.9% of control; activity at 100 µM (HDF (normal cells)): 48.8%; POC (percent of control) HDF (HDF (normal cells); [3]): 37.7% of control; POC (percent of control) HDF (HDF (normal cells); [4]): 61.3% of control; activity at 100 µM [2]: 68.9%; POC (percent of control) BxPC3 [2, 3]: 33.4% of control; POC (percent of control) BxPC3 [2, 4]: 69.7% of control |
